According to patent US9809853B2, “Calcium-activated chloride channel involved in human sweat formation” (BRAIN Biotechnology Research and Information Network AG, priority 2012, dated 2017):

Biological target: T1, CaCC (Ca^2+-activated chloride channels) in NCL-SG3-hsYFP cells (Homo sapiens, UniProt Q5XXA6)
T1 sequence (Q5XXA6 1-986): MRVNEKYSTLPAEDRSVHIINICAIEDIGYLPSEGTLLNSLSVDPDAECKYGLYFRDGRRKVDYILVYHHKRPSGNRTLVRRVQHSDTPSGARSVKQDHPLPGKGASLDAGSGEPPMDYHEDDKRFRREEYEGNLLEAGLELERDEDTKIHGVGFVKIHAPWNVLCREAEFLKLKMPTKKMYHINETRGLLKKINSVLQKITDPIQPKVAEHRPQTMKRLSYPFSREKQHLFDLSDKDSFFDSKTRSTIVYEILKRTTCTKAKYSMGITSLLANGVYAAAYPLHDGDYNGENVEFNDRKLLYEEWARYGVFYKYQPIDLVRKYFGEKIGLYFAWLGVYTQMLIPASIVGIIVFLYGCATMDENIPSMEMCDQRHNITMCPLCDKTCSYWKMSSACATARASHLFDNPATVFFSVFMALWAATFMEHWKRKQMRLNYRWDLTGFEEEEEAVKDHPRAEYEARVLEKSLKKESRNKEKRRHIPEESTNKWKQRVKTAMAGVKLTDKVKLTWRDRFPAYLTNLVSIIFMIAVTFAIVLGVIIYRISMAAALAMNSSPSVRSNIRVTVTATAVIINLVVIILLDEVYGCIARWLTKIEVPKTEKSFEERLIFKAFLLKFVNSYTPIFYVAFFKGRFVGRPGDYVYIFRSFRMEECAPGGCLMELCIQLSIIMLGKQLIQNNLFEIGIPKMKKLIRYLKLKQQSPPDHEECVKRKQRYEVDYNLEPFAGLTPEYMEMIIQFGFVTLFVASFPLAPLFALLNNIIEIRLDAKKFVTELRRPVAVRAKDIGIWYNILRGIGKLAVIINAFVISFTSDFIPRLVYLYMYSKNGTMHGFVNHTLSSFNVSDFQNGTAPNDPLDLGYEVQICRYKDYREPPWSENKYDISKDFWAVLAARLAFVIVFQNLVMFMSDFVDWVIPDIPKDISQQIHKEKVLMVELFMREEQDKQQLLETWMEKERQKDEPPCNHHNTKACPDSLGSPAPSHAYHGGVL
Experiment: hsYFP fluorescence quenching (Cl^− efflux/I^− influx) assay in NCL-SG3-hsYFP CaCC activity sensor cells
Format: cell-based
Description: The halide inside the cell functionally interacts with the halide-sensitive cytoplasmic indicator protein, which leads to a quenching of the signal provided by the halide-sensitive cytoplasmic indicator protein. The more halide (such as e.g. iodide) flows into the cell, the weaker the signal emitted by the halide-sensitive cytoplasmic indicator protein becomes. This alteration of the signal emitted by the halide-sensitive cytoplasmic indicator protein is determined in a third step of the method of the invention. Due to the fact that the influx of halide into the cell is proportional to the efflux of chloride ions, the halide influx is used as a direct measure for chloride secretion. To determine the amount of chloride secretion, the fluorescence decrease is plotted against time (Δfluorescence/Δtime) and the initial slope of the resulting graph represents the iodide influx rate (sec^−1), which in turn is directly proportional to the chloride efflux rate, representing the amount of chloride secretion per time. In a fourth step, this amount of chloride secretion determined in the presence of a test compound is compared to the amount of chloride secretion determined in the absence of a said compound.
Effect of CaCC inhibitors on sweat gland-specific Ca^2+-dependent […] and proportional I^− influx was determined using NCL-SG3-hsYFP cells. Quenching of intracellular hsYFP fluorescence was measured and plotted over time. Exemplary raw data (B) and fitted curves are shown (A). NCL-SG3-hsYFP cells were incubated with 50 μM tannic acid (TA), 25 μM niflumic acid (NFA), 25 μM 5-nitro-2-(3-phenylpropyl-amino) benzoic acid (NPPB), 100 μM epigallocatechin-3-gallate (EGCG) for 15 min and then stimulated with 330 μM ATP.
Sweat gland-specific Ca^2+-dependent Cl^− efflux and a proportional I^− influx was determined using NCL-SG3-hsYFP cells. Quenching of intracellular hsYFP fluorescence was measured and plotted over time. Exemplary fitted curves are shown. NCL-SG3-hsYFP cells were incubated with increasing concentrations of tannic acid (TA) and then stimulated with 330 μM ATP. […] NCL-SG3-hsYFP cells were incubated with increasing concentrations of CaCC inhibitors and quenching of intracellular hsYFP fluorescence was measured after stimulation with ATP. The rate of […] (sec^−1), which is proportional to Ca^2+-dependent […] was calculated from the initial slope of the measured hsYFP fluorescence (ΔYFP fluorescence/Δtime) and is a direct measure of CaCC activity. IC50 values were determined by plotting the percentage of residual CaCC activity against the individual inhibitor concentration.
NCL-SG3-hsYFP cells were routinely cultivated in Williams' Medium E supplemented with 9% Fetal Calf Serum, 3.5 mM Glutamine, 9 ng/μl Hydrocortisone, Insulin-Transferrin-Selenium-Supplement (PAA Laboratories) at 37° C. and 5% CO2. For microplate assays, 20,000 cells were seeded in 96-well black-walled, clear bottom microplates (Costar) and cultivated for 2 days until cells reached confluency. Cells were washed three times with 100 μl modified Krebs-Henseleit (KH) buffer (137 mM NaCl, 2.7 mM KCl, 1.2 mM MgSO4, 1.2 mM KH2PO4, 4.2 mM NaHCO3, 1.3 mM CaCl2, 10 mM HEPES, pH 7.4) and incubated with the test compound in 50 μl KH-buffer for 15 min at 37° C. and 5% CO2. Microplates were transferred into an automated fluorescence plate reader (FlexStation®, Molecular Devices) and cellular hsYFP fluorescence was continuously recorded every 3.5 sec until end of the experiment (excitation at 485 nm, emission at 535 nm, cutoff 515 nm).

Structure (SMILES) | Quenching of hsYFP fluorescence after addition of Ca^2+-elevating agent (330 μM) | Concentration giving maximal quenching of hsYFP (dose-dependent stimulation of Ca^2+-dependent Cl^− transport) [µM] | Effect on hsYFP quenching by Cl^− efflux/I^− influx mediated by ATP (50 μM, 15 min, then 330 μM ATP) | Dose dependence of inhibition of CaCC-mediated Cl^− efflux (increasing inhibitor concentrations, stimulation with 330 μM ATP) | Effect of pretreatment on basal hsYFP quenching (unactivated cells (no ATP))
Nc1ncnc2c1ncn2[C@@H]1O[C@H](COP(=O)(O)OP(=O)(O)OP(=O)(O)O)[C@@H](O)[C@H]1O [ATP] | fast quenching of the hsYFP fluorescence without recovery | 330 |  |  | 
O=C(OC[C@H]1O[C@@H](OC(=O)c2cc(O)c(O)c(OC(=O)c3cc(O)c(O)c(O)c3)c2)[C@H](OC(=O)c2cc(O)c(O)c(OC(=O)c3cc(O)c(O)c(O)c3)c2)[C@@H](OC(=O)c2cc(O)c(O)c(OC(=O)c3cc(O)c(O)c(O)c3)c2)[C@@H]1OC(=O)c1cc(O)c(O)c(OC(=O)c2cc(O)c(O)c(O)c2)c1)c1cc(O)c(O)c(OC(=O)c2cc(O)c(O)c(O)c2)c1 [TA, tannic acid] |  |  | significant reduction of hsYFP quenching | dose-dependent reduction of hsYFP quenching | significant reduction of basal hsYFP quenching
